In patent publication US4794118A, “1,4-benzodioxane derivatives” (Eisai Co., Ltd., priority 1985, dated 1988):

Tests used:
[1] = system: spontaneously hypertensive rats (SHR); assay: Hypotensive effects in spontaneously hypertensive rats (SHR) under anesthesia; type: in vivo, rat (SHR); settings: anesthetized SHR
Protocol: Hypotensive effects in spontaneously hypertensive rats (SHR) under anesthesia
Male SHR of 20 weeks of age or older were anesthetized with sodium pentobarbital (40 mg/kg, i.p.). The carotid artery and jugular vein were cannulated. Blood pressure was recorded from the carotid artery on a polygraph via a pressure transducer. Test compounds were dissolved in a solution containing 0.9% NaCl and 1% Tween 80 and administered either intravenously into the jugular vein or intraduodenally through a cannula inserted into the duodenum.
As a representative of this invention, compound A (8-hydroxy-2-nitrato-methyl-7-nitro-1,4-benzodioxane) was chosen.

[2] = system: arterial and venous systems; assay: Effects on the arterial and venous systems in anesthetized open-chest dogs; type: in vivo, mongrel dogs; settings: for Max. change in mean blood pressure at diastole, Aortic / Max. change in mean blood pressure at diastole, Pulmonary: anesthetized open-chest dogs
Protocol: Effects on the arterial and venous systems in anesthetized open-chest dogs
Mongrel dogs of either sex, weighing 12-16 kg were subjected to inhalation anesthesia with enflurane under artificial respiration. The dogs were subjected to thoracotomy through the fourth right intercostal wall and catheters were inserted into the thoracic aorta and right pulmonary artery. The aortic and pulmonary blood pressures were measured by means of cathether tip-type piezoelectric transducers.
Test compounds were cumulatively administered with intervals of 30 minutes either intravenously or intraduodenally through catheters placed in the left femoral vein and duodenum.

coronary blood flow = assay: Effects on the coronary blood flow in anesthetized open-chest dogs; type: in vivo, mongrel dogs; settings: for Max. increase in coronary blood flow: anesthetized open-chest dogs
Protocol: Effects on the coronary blood flow in anesthetized open-chest dogs
Mongrel dogs of either sex weighing 9-14 kg were subjected to inhalation anesthesia with enflurane under artificial respiration. […] Test compounds were administered cumulatively at intervals of 10 minutes through a catheter inserted into the left femoral vein.

Acute toxicity in mice = settings: mouse, in vivo
Protocol: Acute toxicity in mice was investigated with respect to 8-hydroxy-2-nitratomethyl-7-nitro-1,4-benzodioxane. […] A similar experiment was also conducted with an intravenous administration of NG.

[3] = intravenous administration, dogs
[4] = intravenous, dogs, vs nicorandil

Structure (SMILES) | Max. change in mean blood pressure at diastole, Aortic ([2]; i.d, 30 μg/Kg) | Max. change in mean blood pressure at diastole, Pulmonary ([2]; i.d, 30 μg/Kg) | Max. change in mean blood pressure at diastole, Aortic ([2]; i.d, 100 μg/Kg) | Max. change in mean blood pressure at diastole, Pulmonary ([2]; i.d, 100 μg/Kg) | Max. change in mean blood pressure at diastole, Aortic ([2]; i.d, 300 μg/Kg) | Max. change in mean blood pressure at diastole, Pulmonary ([2]; i.d, 300 μg/Kg) | Max. change in mean blood pressure at diastole, Aortic ([2]; i.v, 3 μg/Kg) | Max. change in mean blood pressure at diastole, Pulmonary ([2]; i.v, 3 μg/Kg) | Max. change in mean blood pressure at diastole, Aortic ([2]; i.v, 10 μg/Kg) | Max. change in mean blood pressure at diastole, Pulmonary ([2]; i.v, 10 μg/Kg) | Max. increase in coronary blood flow (coronary blood flow; 3 μg/Kg, intravenous) | Max. increase in coronary blood flow (coronary blood flow; 10 μg/Kg, intravenous) | LD50 (Acute toxicity in mice; intravenous administration) | Max. change in mean blood pressure at diastole, Aortic ([2]; i.v, 30 μg/Kg) | Max. change in mean blood pressure at diastole, Pulmonary ([2]; i.v, 30 μg/Kg) | also measured
O=[N+]([O-])OCC1COc2ccc([N+](=O)[O-])c(O)c2O1 (stereo not drawn) [Compound A, 8-hydroxy-2-nitratomethyl-7-nitro-1,4-benzodioxane] | -2 mm/Hg | -1.5 mm/Hg | -15 mm/Hg | -2.5 mm/Hg | -22 mm/Hg | -3.5 mm/Hg | -39.2 mm/Hg | -3.2 mm/Hg | -44.2 mm/Hg | -5.3 mm/Hg | 84.7% | 127.6% | 200 to 250 mg/kg | – | – | minimal effective dose ([1]; Rattus norvegicus, intravenous administration, read-out: dose as small as which caused a marked hypotension): 0.0003 mg/kg; hypotension ([1]; intraduodenal administration): dose-dependent hypotension; hypotensive potency relative to ISDN ([1]; intraduodenal, vs ISDN): ~30 times; hypotensive potency relative to NG ([1]; intraduodenal, vs NG): ~10 times; hypotensive potency relative to nicorandil ([1]; intraduodenal, vs nicorandil): about 5 times; potency to cause 30% decrease in mean aortic pressure relative to ISDN ([1]; intravenous, vs ISDN): 250 times; potency to cause 30% decrease in mean aortic pressure relative to NG ([1]; intravenous, vs NG): 5 times; potency to cause 30% decrease in mean aortic pressure relative to nicorandil ([1]; intravenous, vs nicorandil): 300 times; Max. change in mean blood pressure at diastole, Aortic ([2]; i.v, 1 μg/Kg): -23 mm/Hg; Max. change in mean blood pressure at diastole, Pulmonary ([2]; i.v, 1 μg/Kg): -2.5 mm/Hg; reductions in aortic and pulmonary blood pressures ([2]; intraduodenal administration, dogs): dose-dependent reductions in aortic and pulmonary blood pressures; potency (reductions in aortic and pulmonary blood pressures) relative to NG ([2]; intraduodenal, dogs, vs NG): about 3 times; reduction of aortic and pulmonary blood pressure [2, 3]: reduced aortic and pulmonary blood pressure dose-dependently; vasodilating effect on the arterial system (reduction in aortic blood pressure) relative to nicorandil [2, 4]: about 3 times; vasodilating effect on the venous system (reduction in pulmonary blood pressure) relative to nicorandil [2, 4]: about 3 times; Max. increase in coronary blood flow (coronary blood flow; 1 μg/Kg, intravenous): 52.0%; dose range causing a marked and dose-dependent increase in coronary blood flow (coronary blood flow; [3]): 0.001 to 0.01 mg/kg; effect on the coronary flow, potency relative to NG (coronary blood flow; intravenous, dogs, vs NG): about 3 times; LD50 (Acute toxicity in mice; oral administration): 500 to 1000 mg/kg
O=C(NCCO[N+](=O)[O-])c1cccnc1 [Nicorandil, N-[2-(nitroxy)ethyl]-3-pyridinecarboxamide] | – | – | – | – | – | – | – | – | – | – | – | – | – | -10.3 mm/Hg | -1 mm/Hg | Max. change in mean blood pressure at diastole, Aortic ([2]; i.v, 100 μg/Kg): -18.6 mm/Hg; Max. change in mean blood pressure at diastole, Pulmonary ([2]; i.v, 100 μg/Kg): -1.5 mm/Hg; Max. change in mean blood pressure at diastole, Aortic ([2]; i.v, 300 μg/Kg): -50.9 mm/Hg; Max. change in mean blood pressure at diastole, Pulmonary ([2]; i.v, 300 μg/Kg): -2.1 mm/Hg
O=[N+]([O-])OCC(CO[N+](=O)[O-])O[N+](=O)[O-] [NG, nitroglycerin] | -1.7 mm/Hg | -0.7 mm/Hg | -3.3 mm/Hg | -1 mm/Hg | -10 mm/Hg | -1.7 mm/Hg | -21.7 mm/Hg | -0.8 mm/Hg | -33.3 mm/Hg | -3.0 mm/Hg | 31.3% | 79.7% | 10 to 15 mg/kg | -40.0 mm/Hg | -3.7 mm/Hg | Max. increase in coronary blood flow (coronary blood flow; 30 μg/Kg, intravenous): 165.0%
